molecular target: T1, human PAH with the R408W mutation (Homo sapiens, UniProt P00439, R408W); test: Cell Based Phenylalanine Flux Assay; conditions: A375 cells expressing R408W PAH; 24 hrs with compound, then 20 µM sepiapterin and 800 µM 13C9,15N-Phenylalanine for 4 hours; 13C-Tyrosine by LC-MS; average where tested multiple times; read-out: AC50;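 also: after compound treatment, cells received sepiapterin plus isotope-labelled Phenylalanine for 4 hours, then labelled Tyrosine in the medium was quantified, 10-point 2-fold dilution series run in duplicate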
T1 construct: expressed in transfected cells
T1 sequence (P00439 1-452 R408W): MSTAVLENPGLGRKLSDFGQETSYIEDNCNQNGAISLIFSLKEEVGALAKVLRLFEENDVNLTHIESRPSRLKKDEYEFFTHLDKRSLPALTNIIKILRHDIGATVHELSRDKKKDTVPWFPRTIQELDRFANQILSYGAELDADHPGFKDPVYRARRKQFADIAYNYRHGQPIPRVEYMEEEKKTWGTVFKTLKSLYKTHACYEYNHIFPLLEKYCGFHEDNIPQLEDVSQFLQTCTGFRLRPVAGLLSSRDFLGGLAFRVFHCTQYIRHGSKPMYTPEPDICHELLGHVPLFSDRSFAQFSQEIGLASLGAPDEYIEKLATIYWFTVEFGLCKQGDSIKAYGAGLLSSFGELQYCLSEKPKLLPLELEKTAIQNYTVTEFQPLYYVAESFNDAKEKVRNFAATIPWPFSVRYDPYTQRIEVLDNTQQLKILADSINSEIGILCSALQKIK

| SMILES | AC50 [µM] |
| --- | --- |
| Cc1cccc2cc(C3c4nc[nH]c4CCN3C(=O)c3nnc(C4CC(F)(F)C4)o3)nn12 (stereo not shown) [listing 1 of 2 here] | > 5 |
| Cn1ccc(-c2nnc(C(=O)N3CCc4[nH]cnc4C3c3cc4c(OC(F)F)cccn4n3)o2)n1 (stereo not shown) [listing 1 of 2 here] | > 5 |
| FC(F)c1cccc2cc(C3c4nc[nH]c4CCN3c3ncccn3)nn12 (stereo not shown) | 1 to 5 |
| O=C(c1nnc(C2CC(F)(F)C2)o1)N1CCc2[nH]cnc2C1c1cc2cccc(Cl)n2n1 (stereo not shown) | > 5 |
| COCc1ncc(C(=O)N2CCc3[nH]cnc3C2c2cc3ccccn3n2)s1 (stereo not shown) [listing 1 of 2 here] | > 5 |
| COc1cccn2nc(C3c4nc[nH]c4CCN3C(=O)c3cnn4cc(N(C)C)ccc34)cc12 (stereo not shown) [listing 1 of 2 here] | > 5 |
| COc1cccn2nc(C3c4nc[nH]c4CCN3C(=O)c3cnn4cc(-c5cnn(C)c5)ccc34)cc12 (stereo not shown) [listing 1 of 2 here] | > 5 |
| COc1ccc2c(C(=O)N3CCc4[nH]cnc4C3c3cc4c(OC)cccn4n3)cnn2c1 (stereo not shown) [listing 1 of 2 here] | > 5 |
| COc1ccc2c(C(=O)N3CCc4[nH]cnc4C3c3cc4cccc(C(F)F)n4n3)cnn2c1 (stereo not shown) [listing 1 of 2 here] | > 5 |
| COCc1ccc2c(C(=O)N3CCc4[nH]cnc4C3c3cc4cccc(Cl)n4n3)cnn2c1 (stereo not shown) [listing 1 of 2 here] | > 5 |
| Cc1ccc2c(C(=O)N3CCc4[nH]cnc4C3c3cc4cccc(Cl)n4n3)cnn2c1 (stereo not shown) [listing 1 of 2 here] | > 5 |
| Cc1ccc2c(C(=O)N3CCc4[nH]cnc4C3c3cc4cccc(C)n4n3)cnn2c1 (stereo not shown) [listing 1 of 2 here] | > 5 |
| COCCNc1nnc(C(=O)N2CCc3[nH]cnc3C2c2cc3ccccn3n2)o1 (stereo not shown) [listing 1 of 2 here] | > 5 |
| CN(C)Cc1ccc2c(C(=O)N3CCc4[nH]cnc4C3c3cc4cccc(C(F)F)n4n3)cnn2c1 (stereo not shown) [listing 1 of 2 here] | > 5 |
| Cn1cc(-c2nnc(N3CCc4[nH]cnc4C3c3cc4ccccn4n3)o2)cn1 (stereo not shown) | 1 to 5 |
| O=C(c1nnc(N2CC(F)C2)o1)N1CCc2[nH]cnc2C1c1cc2ccccn2n1 (stereo not shown) | 1 to 5 |
| Cc1cccc2cc(C3c4nc[nH]c4CCN3C(=O)c3nnc(C4CC(F)(F)C4)o3)nn12 (stereo not shown) [listing 2 of 2 here] | 1 to 5 |
| Cn1ccc(-c2nnc(C(=O)N3CCc4[nH]cnc4C3c3cc4c(OC(F)F)cccn4n3)o2)n1 (stereo not shown) [listing 2 of 2 here] | 1 to 5 |
| FC(F)c1cccn2nc(C3c4nc[nH]c4CCN3c3nc4ccccc4o3)cc12 (stereo not shown) | > 5 |
| O=C(c1nnc(-c2cnn(C(F)(F)F)c2)o1)N1CCc2[nH]cnc2C1c1cc2c(OC(F)(F)F)cccn2n1 (stereo not shown) | 1 to 5 |
| FC(F)(F)c1cccn2nc(C3c4nc[nH]c4CCN3c3nc4ccccc4o3)cc12 (stereo not shown) | > 5 |
| Fc1cccn2nc(C3c4nc[nH]c4CCN3c3nc4ccccc4o3)cc12 (stereo not shown) | 1 to 5 |

| SMILES | AC50 [µM] |
| --- | --- |
| FC(F)c1nnc(N2CCc3[nH]cnc3C2c2cc3cccc(Cl)n3n2)o1 (stereo not shown) | 1 to 5 |
| Clc1cccc2cc(C3c4nc[nH]c4CCN3c3nnc(C4CC4)o3)nn12 (stereo not shown) | 1 to 5 |
| Cc1nnc(N2CCc3[nH]cnc3C2c2cc3cccc(F)n3n2)o1 (stereo not shown) | > 5 |
| Fc1cccc2cc(C3c4nc[nH]c4CCN3c3ncccn3)nn12 (stereo not shown) | 1 to 5 |
| Cc1cccc2cc(C3c4nc[nH]c4CCN3c3ncc(N)cn3)nn12 (stereo not shown) | 1 to 5 |
| Cc1cccc2cc(C3c4nc[nH]c4CCN3c3ncccn3)nn12 (stereo not shown) | 1 to 5 |
| FC(F)c1cccn2nc(C3c4[nH]cnc4CCN3c3nnc(-c4ccccn4)o3)cc12 (stereo not shown) | 1 to 5 |
| COc1cccn2nc(C3c4nc[nH]c4CCN3C(=O)c3nnc(-c4cnccn4)o3)cc12 (stereo not shown) | 1 to 5 |
| COc1cccn2nc(C3c4nc[nH]c4CCN3C(=O)c3nnc(-c4ncccn4)o3)cc12 (stereo not shown) | > 5 |
| Fc1cccc2cc(C3c4nc[nH]c4CCN3c3nnc(-c4ccccn4)o3)nn12 (stereo not shown) | 1 to 5 |
| Cc1ccc2c(C(=O)N3CCc4[nH]cnc4C3c3cc4cccc(C(F)(F)F)n4n3)cnn2c1 (stereo not shown) | 1 to 5 |
| FC(F)c1nnc(N2CCc3[nH]cnc3C2c2cc3cccc(C(F)(F)F)n3n2)o1 (stereo not shown) | 1 to 5 |
| Fc1cccc2cc(C3c4nc[nH]c4CCN3c3nnc(C(F)F)o3)nn12 (stereo not shown) | 1 to 5 |
| COCc1ncc(C(=O)N2CCc3[nH]cnc3C2c2cc3ccccn3n2)s1 (stereo not shown) [listing 2 of 2 here] | 1 to 5 |
| Fc1cccn2nc(C3c4nc[nH]c4CCN3c3nnc(C4CCC4)o3)cc12 (stereo not shown) | 1 to 5 |
| FC(F)c1cccc2cc(C3c4nc[nH]c4CCN3c3nnc(C4CC4)o3)nn12 (stereo not shown) | 1 to 5 |
| Cc1nnc(N2CCc3[nH]cnc3C2c2cc3c(C(F)(F)F)cccn3n2)o1 (stereo not shown) | 1 to 5 |
| Cc1nnc(N2CCc3[nH]cnc3C2c2cc3cccc(C(F)(F)F)n3n2)o1 (stereo not shown) | 1 to 5 |
| Cc1nnc(N2CCc3[nH]cnc3C2c2cc3cccc(C)n3n2)o1 (stereo not shown) | 1 to 5 |
| CC(C)(C)c1nnc(N2CCc3[nH]cnc3C2c2cc3c(C(F)(F)F)cccn3n2)o1 (stereo not shown) | 1 to 5 |
| COc1cccn2nc(C3c4nc[nH]c4CCN3C(=O)c3cnn4cc(N(C)C)ccc34)cc12 (stereo not shown) [listing 2 of 2 here] | 1 to 5 |
| CN(C)c1ccc2c(C(=O)N3CCc4[nH]cnc4C3c3cc4cccc(F)n4n3)cnn2c1 (stereo not shown) | 1 to 5 |

| SMILES | AC50 [µM] |
| --- | --- |
| Cc1nnc(CCC(=O)N2CCc3[nH]cnc3C2c2cc3ccccn3n2)s1 (stereo not shown) | > 5 |
| COc1cccn2nc(C3c4nc[nH]c4CCN3C(=O)c3nnc(-c4ncccc4F)o3)cc12 (stereo not shown) | 1 to 5 |
| O=C(c1cnn2cc(N3CCOCC3)ccc12)N1CCc2[nH]cnc2C1c1cc2c(F)cccn2n1 (stereo not shown) | 1 to 5 |
| COc1cccn2nc(C3c4nc[nH]c4CCN3C(=O)c3cnn4cc(N5CCOCC5)ccc34)cc12 (stereo not shown) | > 5 |
| COc1cccn2nc(C3c4nc[nH]c4CCN3C(=O)c3cnn4cc(-c5cnn(C)c5)ccc34)cc12 (stereo not shown) [listing 2 of 2 here] | 1 to 5 |
| Cc1cccn2nc(C3c4nc[nH]c4CCN3C(=O)c3cnn4cc(N5CCOCC5)ccc34)cc12 (stereo not shown) | 1 to 5 |
| O=C(c1cnn2cc(N3CCOCC3)ccc12)N1CCc2[nH]cnc2C1c1cc2cccc(C(F)(F)F)n2n1 (stereo not shown) | 1 to 5 |
| COCc1ccc2c(C(=O)N3CCc4[nH]cnc4C3c3cc4c(C(F)F)cccn4n3)cnn2c1 (stereo not shown) | 1 to 5 |
| COc1ccc2c(C(=O)N3CCc4[nH]cnc4C3c3cc4c(OC)cccn4n3)cnn2c1 (stereo not shown) [listing 2 of 2 here] | 1 to 5 |
| FC(F)c1cccn2nc(C3c4nc[nH]c4CCN3c3nnc(N4CCOCC4)o3)cc12 (stereo not shown) | > 5 |
| FC(F)(F)c1cccn2nc(C3c4nc[nH]c4CCN3c3nnc(N4CCOCC4)o3)cc12 (stereo not shown) | > 5 |
| Fc1cccn2nc(C3c4nc[nH]c4CCN3c3nnc(N4CCOCC4)o3)cc12 (stereo not shown) | 1 to 5 |
| Cc1cccn2nc(C3c4nc[nH]c4CCN3c3nnc(N4CCOCC4)o3)cc12 (stereo not shown) | 1 to 5 |
| COCc1ccc2c(C(=O)N3CCc4[nH]cnc4C3c3cc4cccc(C(F)F)n4n3)cnn2c1 (stereo not shown) | 1 to 5 |
| COc1ccc2c(C(=O)N3CCc4[nH]cnc4C3c3cc4cccc(C(F)F)n4n3)cnn2c1 (stereo not shown) [listing 2 of 2 here] | 1 to 5 |
| COCc1ccc2c(C(=O)N3CCc4[nH]cnc4C3c3cc4cccc(Cl)n4n3)cnn2c1 (stereo not shown) [listing 2 of 2 here] | 1 to 5 |
| CN(C)C(=O)c1nnc(N2CCc3[nH]cnc3C2c2cc3c(C(F)F)cccn3n2)o1 (stereo not shown) | 1 to 5 |
| CN(C)C(=O)c1nnc(N2CCc3[nH]cnc3C2c2cc3c(F)cccn3n2)o1 (stereo not shown) | 1 to 5 |
| COCCc1ccc2c(C(=O)N3CCc4[nH]cnc4C3c3cc4cccc(C(F)(F)F)n4n3)cnn2c1 (stereo not shown) | 1 to 5 |
| COCCc1ccc2c(C(=O)N3CCc4[nH]cnc4C3c3cc4ccccn4n3)cnn2c1 (stereo not shown) | > 5 |
| COCc1ccc2c(C(=O)N3CCc4[nH]cnc4C3c3cc4cccc(C)n4n3)cnn2c1 (stereo not shown) | 1 to 5 |
| COCc1ccc2c(C(=O)N3CCc4[nH]cnc4C3c3cc4cccc(C(F)(F)F)n4n3)cnn2c1 (stereo not shown) | 1 to 5 |

| SMILES | AC50 [µM] |
| --- | --- |
| COCc1ccc2c(C(=O)N3CCc4[nH]cnc4C3c3cc4c(OC)cccn4n3)cnn2c1 (stereo not shown) | 1 to 5 |
| O=C(c1cnn2cc(C3CC3)ccc12)N1CCc2[nH]cnc2C1c1cc2cccc(C(F)(F)F)n2n1 (stereo not shown) | 1 to 5 |
| Cc1cccc2cc(C3c4nc[nH]c4CCN3C(=O)c3cnn4cc(C5CC5)ccc34)nn12 (stereo not shown) | 1 to 5 |
| COc1ccc2c(C(=O)N3CCc4[nH]cnc4C3c3cc4cccc(C(F)(F)F)n4n3)cnn2c1 (stereo not shown) | 1 to 5 |
| Cc1ccc2c(C(=O)N3CCc4[nH]cnc4C3c3cc4cccc(C(F)F)n4n3)cnn2c1 (stereo not shown) | 1 to 5 |
| O=C(c1cnn2ccccc12)N1CCc2[nH]cnc2C1c1cc2cccc(C(F)F)n2n1 (stereo not shown) | 1 to 5 |
| Cc1ccc2c(C(=O)N3CCc4[nH]cnc4C3c3cc4cccc(Cl)n4n3)cnn2c1 (stereo not shown) [listing 2 of 2 here] | 1 to 5 |
| Cc1ccc2c(C(=O)N3CCc4[nH]cnc4C3c3cc4cccc(C)n4n3)cnn2c1 (stereo not shown) [listing 2 of 2 here] | 1 to 5 |
| COCCNc1nnc(C(=O)N2CCc3[nH]cnc3C2c2cc3ccccn3n2)o1 (stereo not shown) [listing 2 of 2 here] | > 5 |
| O=C(c1nnc(NC2CC2)o1)N1CCc2[nH]cnc2C1c1cc2ccccn2n1 (stereo not shown) | 1 to 5 |
| Cc1cccn2nc(C3c4nc[nH]c4CCN3c3nnc(C(=O)N(C)C)o3)cc12 (stereo not shown) | 1 to 5 |
| CN(C)C(=O)c1nnc(N2CCc3[nH]cnc3C2c2cc3ccccn3n2)o1 (stereo not shown) | 1 to 5 |
| CN(C)CCc1ccc2c(C(=O)N3CCc4[nH]cnc4C3c3cc4c(F)cccn4n3)cnn2c1 (stereo not shown) | 1 to 5 |
| CN(C)Cc1ccc2c(C(=O)N3CCc4[nH]cnc4C3c3cc4c(C(F)F)cccn4n3)cnn2c1 (stereo not shown) | 1 to 5 |
| CN(C)Cc1ccc2c(C(=O)N3CCc4[nH]cnc4C3c3cc4c(F)cccn4n3)cnn2c1 (stereo not shown) | 1 to 5 |
| CN(C)Cc1ccc2c(C(=O)N3CCc4[nH]cnc4C3c3cc4cccc(C(F)F)n4n3)cnn2c1 (stereo not shown) [listing 2 of 2 here] | 1 to 5 |
| CN(C)Cc1ccc2c(C(=O)N3CCc4[nH]cnc4C3c3cc4cccc(Cl)n4n3)cnn2c1 (stereo not shown) | 1 to 5 |
| CN(C)Cc1ccc2c(C(=O)N3CCc4[nH]cnc4C3c3cc4cccc(F)n4n3)cnn2c1 (stereo not shown) | 1 to 5 |
| Cc1cccn2nc(C3c4nc[nH]c4CCN3C(=O)c3cnn4cc(CCN(C)C)ccc34)cc12 (stereo not shown) | 1 to 5 |
| CN(C)Cc1ccc2c(C(=O)N3CCc4[nH]cnc4C3c3cc4cccc(C(F)(F)F)n4n3)cnn2c1 (stereo not shown) | 1 to 5 |
| CN(C)Cc1nnc(C(=O)N2CCc3[nH]cnc3C2c2cc3ccccn3n2)o1 (stereo not shown) | > 5 |
| Cc1ncoc1C(=O)N1CC2(CC2)c2[nH]cnc2C1c1cc2ccccn2n1 (stereo not shown) | 1 to 5 |

Source: patent publication US20230365592A1 (Agios Pharmaceuticals, Inc., priority 2022, published 2023)
